Data as given in PubChem BioAssay AID179 (DTP/NCI, 2004).
Values joined by “and” are separate entries in the source; they are usually repeats but may differ in a detail not shown here. Equal values may be shown once. Active and inactive are the calls of the source.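 How the source made its calls: active means compounds giving half or more protection of infected cells from virus-caused growth loss, again on retest; inactive means the rest.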

System: CEM cells HIV-1 protection, formazan growth assay
Test: NCI AIDS Antiviral Assay
Conditions: for IC50: measured here: growth of uninfected CEM cells
Outline: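 Soluble formazan readout of cell growth; CEM cells ± HIV-1; 5 drug concs. ≥50% protection → retest; ≥50% again = moderately active; reproducible 100% = confirmed active.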

Structure (SMILES)	EC50 [µM]	IC50	outcome
CC1(C)c2ccccc2-c2nc3ccccc3c3c2C1OC3=O (stereo not drawn)	> 832	> 832 µM	–
COc1cc2oc(=O)ccc2cc1CC=C(C)C	> 40.7	> 40.7 µM	–
CC1=CC[P+](Cc2ccccc2)(c2ccccc2)C1 (stereo not drawn)	> 724	40.7 µM	–
Nc1nc2c(c(-c3ccccc3Cl)n1)COC/C2=C\c1ccccc1Cl	–	–	inactive
COc1cc(/C=C2/CCCc3ccccc3C2=O)cc(OC)c1OC	> 200	11.7 µM	–
COc1ccc(C2CC(c3c(O)ccc4ccccc34)=NN2c2ccc([N+](=O)[O-])cc2[N+](=O)[O-])cc1OC (stereo not drawn)	> 200	15.8 µM	–
Cc1nc(N)c(N2CCN(S(N)(=O)=O)CC2)c(=O)[nH]1	> 200	> 200 µM	–
COC(=O)c1cc2ccc(O)c(O)c2cn1	> 195	2.24 µM and 2.34 µM	–
CCCCCCCCCCCCNS(=O)(=O)c1ccc(-c2c3nc(c(-c4ccc(S(=O)(=O)NCCCCCCCCCCCC)cc4)c4ccc([nH]4)c(-c4ccc(S(=O)(=O)NCCCCCCCCCCCC)cc4)c4nc(c(-c5ccc(S(=O)(=O)NCCCCCCCCCCCC)cc5)c5ccc2[nH]5)C=C4)C=C3)cc1	> 100	> 100 µM	–
CCOC(=O)C1=CN=C2C(=O)N(c3ccccc3)N(C)C2(C)C1=N (stereo not drawn)	> 200	> 200 µM	–
Cc1[nH]c(=O)[nH]c1C(=O)c1ccc(-n2ccnc2)cc1	> 14.1	> 14.1 µM	–
COc1ccc(-c2c3c(n(C4OC(CO)C(O)C(O)C4O)c(=S)c2C#N)CCC3)cc1 (stereo not drawn)	> 200	43.7 µM	–
c1ccc2[nH]c(C3=NCCS3)nc2c1	> 1230	240 µM	–
Nc1nc(Cl)cc(Nc2cc(Cl)cc(Cl)c2)n1	> 200	23.4 µM	–
CSP(=S)(SC)SC(C)c1ccc(C)cc1 (stereo not drawn)	–	–	inactive
CC(NNC(=O)c1ccncc1)c1cccc(C(F)(F)F)c1 (stereo not drawn)	> 200	195 µM	–
COc1ccccc1C(C1=C(O)COC1=O)c1cc2c(cc1OC(C)=O)OCO2 (stereo not drawn)	> 200	> 200 µM	–
CCN(CC)C(=O)CC12CCCCC1=Nc1ccccc12 (stereo not drawn)	> 871	550 µM	–
C/C(CC(=O)Nc1ccc(Cl)cc1)=N\NC(N)=S	> 871	123 µM	–
COc1ccc(-n2c(=O)c3[nH]c(=S)[nH]c3n(-c3ccc(OC)cc3)c2=S)cc1	> 200	> 200 µM	–
ClCCc1ccccc1CC1=NCCc2ccccc21	> 200	36.3 µM	–
COC(=O)C1CCc2c1c(=O)n1c([nH]c3ccccc31)c2C#N (stereo not drawn)	> 40.7	> 40.7 µM	–

Structure (SMILES)	EC50 [µM]	IC50	outcome
[N-]=[N+]=Nc1c(-c2ccccc2)c(Cl)nc2ccccc12	> 200	20.4 µM	–
C/C=C/C(CC(O)(C(F)(F)F)C(F)(F)F)=N/NC(N)=S	> 200	> 200 µM	–
CC(C)(C)COC1C2(OCCO2)C2CCC1(C)C2(C)C (stereo not drawn)	> 200	> 200 µM	–
Cc1ccc(NC(=O)/C(C#N)=C/c2ccccc2)c(C)c1	> 24.5	> 24.5 µM	–
CCc1c(O)n(Cc2nc3ccccc3[nH]2)c(=S)n(-c2ccccc2)c1=O	> 200	> 200 µM	–
Cc1ccc(N=N/C(=N/NC(=O)c2cc(Cl)ccc2O)c2ccc(N(CCC#N)CCC#N)cc2C)cc1	> 200	10.7 µM	–
c1ccc(NCn2cnc3ccccc32)cc1	–	–	inactive
C/C(CC(O)(C(F)(F)F)C(F)(F)F)=N\NC(N)=O	> 200	> 200 µM	–
NC(=O)c1ncn(CC2(CO)CCC2)c1N	> 200	> 200 µM	–
O=Cc1nc2ccccc2s1	–	–	inactive
O=[As](O)(O)c1ccc(Cl)cc1Cl	> 200	95.5 µM	–
c1ccc(N=C2SC3=NCCN3C2=Nc2ccccc2)cc1	> 200	8.32 µM	–
Cc1cc2c(C(C)C)c(O)c(O)c(C=Nc3ccc(C(=O)NCC(=O)O)cc3)c2c(O)c1-c1c(C)cc2c(C(C)C)c(O)c(O)c(C=Nc3ccc(C(=O)NCC(=O)O)cc3)c2c1O	> 200	25.7 µM	–
COc1ccccc1NC(=O)C1=C(C)NC(C)=C(C(=O)Nc2ccccc2OC)C1c1ccc(C)cc1	> 7.59	> 7.59 µM	–
COC(=O)C1=C(N2CCCC2)C2c3ccccc3SC12C(=O)OC (stereo not drawn)	5.75	55 µM	–
CC(=O)CN=C(C)NNc1ccc([N+](=O)[O-])cc1[N+](=O)[O-]	> 200	60.3 µM	–
Nc1nc(N)n2c(N)nnc2n1	> 200	> 200 µM	–
COc1c2c(cc3c1C(=O)c1c(O)cccc1C3=O)CC(O)CC2 (stereo not drawn)	> 200	> 200 µM	–
CCN1Cc2c(/C=C/c3ccccc3)nc3ccc(OC)cc3c2N(c2cccc(Cl)c2)C1	> 41.7	7.76 µM	–
CCCCS(=O)(=O)O	> 200	> 200 µM	–
COc1cc(C2OC(N)=C(C#N)C3=C2C(C)CCC3)cc(OC)c1OC (stereo not drawn)	–	–	inactive
Cc1nn(C(=O)c2ccncc2)c2c1C(c1ccccc1[N+](=O)[O-])SC(N)=N2 (stereo not drawn)	–	–	inactive

Structure (SMILES)	EC50 [µM]	IC50	outcome
Cc1cc(=O)oc2c3c(cc(OC(C)C)c12)O[C@H](C)[C@@H](C)C3=O	> 200	40.7 µM	–
O=c1[nH]c2nc[nH]c2c(=O)n1C1CCCCC1	> 200	> 200 µM	–
CNc1cc(Cl)ccc1C(=O)N1CCC[C@H]1CO	> 200	191 µM	–
Cc1cc2c(c(C#N)c1C)NC(=O)CN=C2c1ccccc1F	70.8	> 200 µM	–
COc1cc(C(c2ccc3c(c2)OCO3)C2SCCCS2)cc(OC)c1OC (stereo not drawn)	> 200	0.871 µM	–
CSCC1(O)CCCCC1	> 200	> 200 µM	–
O=C1OCc2cc3cc4c(cc3c(-c3ccc5c(c3)OCO5)c21)OCO4 (tested in a mixture with another compound)	–	–	inactive
O=C(N(O)c1ccccc1Cl)C(O)(c1ccccc1)c1ccccc1	> 20	> 20 µM	–
CCc1ccccc1NC(=O)Nc1cc(C)ccn1	> 200	24 µM	–
CC(C)CC(=O)[O-].CC(C)CC(=O)[O-].N.N.N.N.[Co+3].[O-][Cl+3]([O-])([O-])[O-]	–	–	inactive
CC1=NNC(=O)C1C1CC(c2c[nH]c3ccccc23)=NN(c2ccccc2)C1=O (stereo not drawn)	> 200	33.9 µM	–
Cc1ccc(-c2n[nH]c(=O)[nH]2)cc1[N+](=O)[O-]	> 200	> 200 µM	–
O=C(O)CN1C(=O)c2ccc(NC(=O)C(=O)O)cc2S1(=O)=O	> 200	> 200 µM	–
N.N.N.N.N.O=C([O-])C(=O)[O-].[Co+3].[O-][Cl+3]([O-])([O-])O.[O-][Cl+3]([O-])([O-])[O-]	–	–	inactive
CNc1ccccc1S(=O)(=O)c1ccccc1C(F)(F)F	> 200	17 µM	–
CC1OC(OC2C(CO)OC(O[C@H]3CC[C@@]4(C)C(=CC[C@H]5[C@@H]6C[C@@H]7O[C@]8(CC[C@@H](C)CN8)[C@@H](C)[C@@H]7[C@@]6(C)CC[C@@H]54)C3)C(O)C2O)C(O)C(O)C1O (stereo partly drawn)	–	–	inactive
CCOP(=O)(OCC)C(F)(F)Cc1cnc(C)c2c1COC(C)(C)O2	> 200	> 200 µM	–
CN1CCN=C(c2ccccc2)c2cc(Cl)ccc21	> 200	105 µM	–
CCOC(=O)CNC(SC)=C(C#N)C#N	–	–	inactive
C1CN2N3CCCC23C1 (stereo not drawn)	> 2000	> 2000 µM	–
COc1ccc(-n2c(C)nc3ccc(NC4OCC(OC(C)=O)C(OC(C)=O)C4OC(C)=O)cc3c2=O)cc1 (stereo not drawn)	> 200	123 µM	–
CC(C)C1SCc2nc3ccccc3n21 (stereo not drawn)	> 200	95.5 µM	–

Structure (SMILES)	EC50 [µM]	IC50	outcome
CCOC1=NC(C(F)(F)F)(C(F)(F)F)N=C(N2CCCCC2)O1	> 200	97.7 µM	–
Nc1nc(=S)[nH]c2n[nH]nc12	> 200	> 200 µM	–
CCOC(=O)CCC(NC(=O)c1ccc(CNc2nc3ccccc3nc2C(=O)OCC)cc1)C(=O)OCC (stereo not drawn)	> 200	> 200 µM	–
O=C(c1ccco1)N(Cc1ccco1)C(=S)Nc1ccccc1	> 200	12 µM	–
CCOC(=O)Cc1nc2ccc3c(c2[nH]c1=O)C(=O)c1ccccc1C3=O	> 14.5	> 14.5 µM	–
NC(=O)c1ccccc1NC(=O)C(=O)Cc1nc2ccccc2[nH]c1=O	> 269	> 269 µM	–
CC(=O)Nc1ccc(C(C2=C(O)c3ccccc3C(=O)C2=O)C2=C(O)c3ccccc3C(=O)C2=O)cc1	> 200	16.2 µM	–
CN(C)c1ccc(-c2c(C#N)c(S)n(NS(=O)(=O)c3ccccc3)c(=O)c2C#N)cc1	> 200	8.32 µM	–
O=C(Nc1ncnc2c1ncn2C1CC(OC(=O)c2ccc([N+](=O)[O-])cc2)C(COC(=O)c2ccc([N+](=O)[O-])cc2)O1)c1ccccc1 (stereo not drawn)	–	–	inactive
O=C(O)/C(Cl)=C(\Cl)Nc1cccc(C(F)(F)F)c1	–	–	inactive
C=COC(=O)N1C2CCCC(Cl)(C(C)=O)C1CC2 (stereo not drawn)	> 200	55 µM	–
O=C(CN1CCCCC1)Nc1ccc2c(c1)C1Oc3ccccc3CC1CO2 (stereo not drawn)	–	–	inactive
CC(C)O/C=C1\CCc2ccccc2C1=O	> 200	36.3 µM	–
O=C(c1ccc(O)c([N+](=O)[O-])c1)c1ccc(O)c([N+](=O)[O-])c1	> 200	45.7 µM	–
CN(C)CCCOC(=O)C1C[C@@H](O)CN1C(=O)c1ccc2c(c1)OCO2 (stereo partly drawn)	> 200	> 200 µM	–
C/C(N)=C\c1nc(=O)ccs1	> 178	129 µM	–
Oc1ccccc1C=Nc1ccccc1SSc1ccccc1N=Cc1ccccc1O	> 200	8.13 µM	–
CCN1C[C@]2(COC)[C@H](O)C[C@H](OC)[C@]34C1[C@H]([C@H](OC)[C@H]23)[C@]1(OC(C)=O)[C@H]2[C@@H](OC(=O)c3ccccc3)[C@](O)(C[C@H]24)[C@@H](OC)[C@@H]1O	–	–	inactive
CC(=O)Nc1ccc(S(=O)(=O)c2ccc(NC(=O)c3ccccc3SC(=O)CCCC[n+]3ccccc3)cc2)cc1	13.5	> 200 µM	–
CC12CCC(=O)C[C@H]1CCC(OC=O)C2Br (stereo partly drawn)	–	–	inactive
Cc1ccc(-c2cc(-c3ccco3)c(C#N)c(=S)n2C2OC(CO)C(O)C(O)C2O)cc1 (stereo not drawn)	> 200	9.33 µM and 57.5 µM	–
